The values below come from patent US9550751B2, “Processes for the preparation of pesticidal compounds” (Dow AgroSciences LLC, priority 2013, dated 2017).

Structures can show the parent of a compound that is named as a salt. Where two headings read alike, the source gives them in different places.

In test [1] the test system is Sweetpotato Whitefly Crawler (Bemisia tabaci) (BEMITA). Description: Bioassays on Sweetpotato Whitefly Crawler, foliar spray on cotton plants. The test is classed as in vivo. To be noted: read-out: BEMITA rating (% Control of Mortality). On the procedure: Cotton plants grown in 3-inch pots, with 1 small (3-5 cm) true leaf, were used at test substrate. The plants were placed in a room with whitely adults. Adults were allowed to deposit eggs for 2-3 days. After a 2-3 day egg-laying period, plants were taken from the adult whitefly room. Adults were blown off leaves using a hand-held Devilbliss sprayer (23 psi). Plants with egg infestation (100-300 eggs per plant) were placed in a holding room for 5-6 days at 82° F. and 50% RH for egg hatch and crawler stage to develop. Four cotton plants were used for each treatment. Compounds (2 mg) were dissolved in 1 mL of acetone solvent, forming stock solutions of 2000 ppm. The stock solutions were diluted 10× with 0.025% Tween 20 in water to obtain a test solution at 200 ppm. A hand-held Devilbliss sprayer was used for spraying a solution to both sides of cotton leaf until runoff. Reference plants (solvent check) were sprayed with the diluent only. Treated plants were held in a holding room for 8-9 days at approximately 82° F. and 50% RH prior to grading. Evaluation was conducted by counting the number of live nymphs per plant under a microscope.

Test [2] concerns Green Peach Aphid (Myzus persicae) (MYZUPE). Briefly: Bioassays on Green Peach Aphid (GPA), foliar spray on cabbage seedlings. The test is classed as in vivo. The settings on record: 72 h, read-out: MYZUPE rating (% Control of Mortality). The protocol: Several molecules disclosed herein were tested against GPA using procedures described below.
Cabbage seedling grown in 3-in pots, with 2-3 small (3-5 cm) true leaves, were used as test substrate. The seedlings were infested with […] (wingless adult and nymph stages) one day prior to chemical application. Four pots with individual seedlings were used for each treatment. Test compounds (2 mg) were dissolved in 2 mL of acetone/MeOH (1:1) solvent, forming stock solutions of 1000 ppm test compound. The stock solutions were diluted 5× with 0.025% Tween 20 in water to obtain the solution at 200 ppm test compound. A hand-held aspirator-type sprayer was used for spraying a solution to both sides of the cabbage leaves until runoff. Reference plants (solvent check) were sprayed with the diluent only containing 20% by volume acetone/MeOH (1:1) solvent. Treated plants were held in a holding room for three days at approximately 25° C. and ambient relative humidity (RH) prior to grading. Evaluation was conducted by counting the number of live aphids per plant under a microscope. Percent Control was measured by using Abbott's correction formula (W. S. Abbott, “A Method of Computing the Effectiveness of an Insecticide” J. Econ. Entomol 18 (1925), pp. 265-267) as follows. Corrected % Control=100*(X−Y)/X • where • X=No. of live aphids on solvent check plants and • Y=No. of live aphids on treated plants
The results are indicated in the table entitled “Table 1: GPA (MYZUPE) and sweetpotato whitefly-crawler (BEMITA) Rating Table”.

As to `Nc1c[nH]nc1Cl` [Compound 1a, 3-chloro-1H-pyrazol-4-amine hydrochloride], the mortality at 200 ppm in test [1] and in test [2] was 0 to 80% throughout. In the case of `CCNc1c[nH]nc1Cl` [Compound 7a, 3-Chloro-N-ethyl-1H-pyrazol-4-amine], the mortality at 200 ppm in test [2] is under 0%.

In the case of `CCN(C(=O)CCSCCC(F)(F)F)c1c[nH]nc1Cl` [Compound 4.7, N-(3-chloro-1H-pyrazol-4-yl)-N-ethyl-3-((3,3,3-trifluoropropyl)thio)propanamide], in test [2] (200 ppm spray on cabbage seedlings, graded after three days, Abbott's correction, live aphids), the mortality at 200 ppm is under 0%.
